Results reported in publication PMC9233054 (Pharmaceutical development and technology, 2022).
Values after ≈ are worked out from the molar mass of the structure shown.

Assays:
[1] = HPBCD 0 mM (control, D.I. H2O), S0; ref Hamilton 2015; cited from earlier work
[2] = physchem; settings: water, thermodynamic from solid
[3] = Phase solubility study
[4] = type: physicochemical; settings: 1:1 cholecalciferol:HPBCD; calculated with theoretic S0

C=C1CC[C@H](O)C/C1=C/C=C1\CCC[C@]2(C)[C@@H]([C@H](C)CCCC(C)C)CC[C@@H]12 [cholecalciferol]
Saturated concentration of vitamin D3 in HPBCD solution (S) [1]: 3.38×10^−8 (S0) ([Hamilton 2015]) mM
solubility at 3 days [2]: 1.6 µM (≈ 0.615 µg/mL)
Solubility increase ratio (S/S0) ([3]; HPBCD 0 mM (control, D.I. H2O)): 1
Solubility increase ratio (S/S0) ([3]; HPBCD 10 mM): 5.92×10^5
Solubility increase ratio (S/S0) ([3]; HPBCD 40 mM): 1.42×10^7
Solubility increase ratio (S/S0) ([3]; HPBCD 50 mM): 2.29×10^7
Solubility increase ratio (S/S0) ([3]; HPBCD 70 mM): 4.56×10^7
Solubility increase ratio (S/S0) ([3]; HPBCD 100 mM): 9.30×10^7
Solubility increase ratio (S/S0) ([3]; HPBCD 120 mM): 1.11×10^8
Solubility increase ratio (S/S0) ([3]; HPBCD 150 mM): 1.90×10^8
Solubility increase ratio (S/S0) ([3]; HPBCD 170 mM): 2.31×10^8
Solubility increase ratio (S/S0) ([3]; HPBCD 200 mM): 3.29×10^8
solubility increase ratio ([3]; different HPBCD molarities (Table 1)): enhanced by five or more orders of magnitude
stability constant K1:1 [4]: 71900 mM⁻¹
